Strand notation (5' to 3'): a small letter for the sugar, then the base; units joined by * are phosphorothioate-linked, units joined directly phosphodiester-linked; [ ] holds rarer units or linkages, { } end groups; capitals alone tell only the bases. k = constrained ethyl (cEt); [5mC] = 5-methylcytosine; d = 2'-deoxy (DNA)
tested on: Yap1 mRNA; test: Antisense inhibition of human Yap1 in A-431 cells by cEt gapmers, single dose (Example 3, RTS36584); assay type: cell-based; conditions: Table 8; A-431 cells, 5,000 cells per well, free uptake, 2,000 nM, approximately 48 hours; RTS36584; normalized to RIBOGREEN; Yap1 mRNA relative to untreated control cells
Outline: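 A-431 cells (5,000/well) took up the 3-10-3 cEt gapmers by free uptake at 2,000 nM for about 48 h. Yap1 mRNA was measured by RT-qPCR with primer probe set RTS36584, normalized to RiboGreen total RNA, and given as % of untreated control.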

Row | Substance | YAP1 (% UTC)
1 | 958368 (antisense kA*kT*k[5mC]*dT*dA*dG*d[5mC]*dT*dT*dG*dG*dT*dG*kG*k[5mC]*kA) [Compound 958368] | 11 % UTC
2 | 958416 (antisense kG*k[5mC]*kT*dG*dT*dG*dT*dA*dG*dG*d[5mC]*dT*dG*kA*k[5mC]*kT) [Compound 958416] | 36 % UTC

same assay, conditions: Table 9; A-431 cells, 5,000 cells per well, free uptake, 2,000 nM, approximately 48 hours; RTS36584; normalized to RIBOGREEN; Yap1 mRNA relative to untreated control cells

Row | Substance | YAP1 (% UTC)
3 | 958796 (antisense kA*kT*kT*dA*dT*dA*dT*dG*dG*dT*dT*dG*d[5mC]*kT*kT*k[5mC]) [Compound 958796] | 3 % UTC
4 | 958446 (antisense k[5mC]*k[5mC]*kT*dG*dA*d[5mC]*d[5mC]*d[5mC]*dA*dG*dG*d[5mC]*dG*kA*kG*k[5mC]) [Compound 958446] | 70 % UTC
5 | 958626 (antisense kT*kG*kG*dG*d[5mC]*dA*dA*dA*dG*dT*dT*d[5mC]*d[5mC]*kT*kA*kT) [Compound 958626] | 158 % UTC

same assay, conditions: Table 10; A-431 cells, 5,000 cells per well, free uptake, 2,000 nM oligonucleotide, approx. 48 hours; primer probe set RTS36584; Yap1 mRNA normalized to RIBOGREEN, percent of untreated control

Row | Substance | YAP1 (% UTC)
6 | 958452 (antisense k[5mC]*kT*k[5mC]*d[5mC]*dA*dG*dG*dT*d[5mC]*dG*dG*dT*d[5mC]*kT*k[5mC]*k[5mC]) [Compound 958452] | 26 % UTC
7 | 958812 (kT*kA*k[5mC]*dT*dA*dT*dA*dA*dG*dA*d[5mC]*dA*d[5mC]*k[5mC]*kA*kA; antisense) [Compound 958812] | 31 % UTC
8 | 958577 (kT*k[5mC]*kT*dG*dT*dG*dG*d[5mC]*dT*dA*d[5mC]*dT*dG*kG*k[5mC]*kA; antisense) [Compound 958577] | 4 % UTC

same assay, conditions: Table 11; A-431 cells, 5,000 cells per well, free uptake, 2,000 nM oligonucleotide, approx. 48 hours; primer probe set RTS36584; Yap1 mRNA normalized to RIBOGREEN, percent of untreated control

Row | Substance | YAP1 (% UTC)
9 | 958738 (antisense kT*k[5mC]*kT*dA*dT*dA*dT*dG*dT*dT*dT*d[5mC]*d[5mC]*k[5mC]*k[5mC]*k[5mC]) [Compound 958738] | 11 % UTC
10 | 958463 (antisense k[5mC]*k[5mC]*kT*dG*dA*dG*dA*d[5mC]*dA*dT*d[5mC]*d[5mC]*d[5mC]*kG*kG*kG) [Compound 958463] | 63 % UTC
11 | 958688 (antisense kG*kG*k[5mC]*dT*dA*dT*dG*dT*dA*dG*d[5mC]*d[5mC]*dT*kT*k[5mC]*k[5mC]) [Compound 958688] | 82 % UTC

same assay, conditions: Table 12; A-431 cells, 5,000 cells per well, free uptake, 2,000 nM modified oligonucleotide, approx. 48 hours; RTS36584; normalized to RIBOGREEN; Yap1 mRNA relative to untreated control cells

Row | Substance | YAP1 (% UTC)
12 | 958439 (antisense kG*k[5mC]*kG*d[5mC]*d[5mC]*d[5mC]*d[5mC]*dG*dG*d[5mC]*dT*d[5mC]*d[5mC]*kA*k[5mC]*kT) [Compound 958439] | 77 % UTC
13 | 958564 (kT*k[5mC]*k[5mC]*dA*dA*dA*dT*dT*dG*dA*dA*dG*dG*kG*k[5mC]*k[5mC]; antisense) [Compound 958564] | 62 % UTC
14 | 958759 (antisense kG*k[5mC]*k[5mC]*dT*dA*dT*d[5mC]*dG*d[5mC]*d[5mC]*d[5mC]*d[5mC]*dA*kA*kG*k[5mC]) [Compound 958759] | 61 % UTC
15 | 958469 (antisense kG*kG*k[5mC]*dT*d[5mC]*dT*dA*dT*dA*dA*d[5mC]*d[5mC]*dA*kT*kG*kT) [Compound 958469] | 17 % UTC
16 | 958524 (kG*k[5mC]*kA*d[5mC]*dA*dT*dT*dA*dT*dG*dA*dA*d[5mC]*k[5mC]*kT*kA; antisense) [Compound 958524] | 13 % UTC

same assay, conditions: Table 13; A-431 cells, 5,000 cells per well, free uptake, 2,000 nM modified oligonucleotide, approx. 48 hours; RTS36584; normalized to RIBOGREEN; Yap1 mRNA relative to untreated control cells

Row | Substance | YAP1 (% UTC)
17 | 958725 (antisense kG*kT*k[5mC]*dA*dG*dT*dT*dA*dT*d[5mC]*d[5mC]*dT*dA*kT*k[5mC]*k[5mC]) [Compound 958725] | 1 % UTC
18 | 958610 (antisense kA*kG*kG*dT*dA*dA*d[5mC]*dA*dT*dT*dG*dG*dT*kA*k[5mC]*kT) [Compound 958610] | 34 % UTC
19 | 958485 (kA*kG*kA*dG*dG*dT*d[5mC]*dA*dG*d[5mC]*dA*dA*dT*kA*k[5mC]*kA; antisense) [Compound 958485] | 3 % UTC
20 | 958735 (antisense kA*kG*k[5mC]*dA*dA*dT*d[5mC]*dT*dT*dG*dT*dG*dG*kA*kT*k[5mC]) [Compound 958735] | 7 % UTC

same assay, conditions: Table 27; Yap1 mRNA by 3-10-3 cEt gapmers targeting SEQ ID NO.: 1, and 2; percent of untreated control

Row | Substance | YAP1 (% UTC)
21 | 1075789 (kA*kA*kT*dT*dA*d[5mC]*dA*dA*dG*d[5mC]*dT*dA*dA*kT*kG*k[5mC]; antisense) [compound 1075789] | 79 % UTC
22 | 1075853 (kG*kA*kG*d[5mC]*dG*dA*dT*dA*dA*dG*d[5mC]*dT*dG*kT*kA*kT; antisense) [compound 1075853] | 72 % UTC
23 | 1075501 (k[5mC]*kA*kT*dA*dA*dA*dT*dT*dA*dA*dG*d[5mC]*d[5mC]*kA*kA*k[5mC]; antisense) [compound 1075501] | 67 % UTC
24 | 1075917 (antisense kA*kG*k[5mC]*dA*dA*dA*dA*dA*dG*dT*dG*dA*dT*kA*kT*kG) [compound 1075917] | 55 % UTC
25 | 1074733 (kG*k[5mC]*k[5mC]*dA*dG*dG*dT*dA*dT*d[5mC]*dA*d[5mC]*dA*kG*kT*kA; antisense) [compound 1074733] | 47 % UTC

same assay, conditions: Table 28; Yap1 mRNA as percent of untreated control; 3-10-3 cEt gapmers targeting SEQ ID NO.: 1, and 2

Row | Substance | YAP1 (% UTC)
26 | 1075470 (antisense kG*k[5mC]*k[5mC]*dA*dA*dT*dA*dA*dG*dT*dT*dA*dT*k[5mC]*kA*kA) [compound 1075470] | 50 % UTC
27 | 1076238 (kG*kA*kT*dG*dA*dA*dT*dA*dG*d[5mC]*dT*dA*dA*kG*kA*kA; antisense) [compound 1076238] | 30 % UTC
28 | 1075566 (kA*kT*kA*dT*dA*dT*dA*dA*d[5mC]*dA*dG*dG*d[5mC]*k[5mC]*kA*k[5mC]; antisense) [compound 1075566] | 50 % UTC
29 | 1075854 (k[5mC]*kT*kT*dA*dT*dA*dA*dT*dA*dG*dA*dG*d[5mC]*kT*kA*kA; antisense) [compound 1075854] | 52 % UTC
30 | 1075214 (kA*kA*k[5mC]*dA*dA*dT*dA*dA*dA*dG*dG*dG*dT*k[5mC]*k[5mC]*kT; antisense) [compound 1075214] | 45 % UTC

same assay, conditions: Table 29; Yap1 mRNA as percent of untreated control; 3-10-3 cEt gapmers targeting SEQ ID NO.: 1, and 2

Row | Substance | YAP1 (% UTC)
31 | 1074703 (antisense k[5mC]*kG*kG*dT*dG*dT*dA*dA*dG*dA*d[5mC]*dA*dA*kG*kT*k[5mC]) [compound 1074703] | 16 % UTC
32 | 1075151 (kT*kT*kT*dA*dA*dA*dA*dG*dT*dA*d[5mC]*d[5mC]*dA*kG*k[5mC]*kG; antisense) [compound 1075151] | 60 % UTC
33 | 1074895 (antisense kT*k[5mC]*k[5mC]*dT*dA*dT*dG*d[5mC]*dT*dG*dA*dA*dG*kT*kT*kT) [compound 1074895] | 60 % UTC

same assay, conditions: Table 34; Yap1 mRNA as percent of untreated control; 3-10-3 cEt gapmers targeting SEQ ID NO: 1 and 2; single dose

Row | Substance | YAP1 (% UTC)
34 | 1075476 (kT*k[5mC]*kT*dT*dA*dT*d[5mC]*d[5mC]*dT*dA*d[5mC]*dA*dG*k[5mC]*kT*kT; antisense) [compound 1075476] | 75 % UTC
35 | 1076404 (antisense kT*kA*kT*dT*dT*dA*dA*dG*dA*d[5mC]*d[5mC]*dT*dG*kG*kT*kG) [compound 1076404] | 13 % UTC
36 | 1074260 (antisense kG*kT*kT*d[5mC]*dA*dT*d[5mC]*dA*dT*dA*dT*dT*d[5mC]*kT*kG*k[5mC]) [compound 1074260] | 48 % UTC

same assay, conditions: Table 35; Yap1 mRNA as percent of untreated control; 3-10-3 cEt gapmers targeting SEQ ID NO: 1 and 2; single dose

Row | Substance | YAP1 (% UTC)
37 | 1075221 (k[5mC]*kA*kT*dT*dA*dT*d[5mC]*d[5mC]*dG*dG*dG*dA*dG*kA*kG*k[5mC]; antisense) [compound 1075221] | 10 % UTC
38 | 1074837 (kT*kA*kA*d[5mC]*dA*dA*d[5mC]*dA*dT*dG*d[5mC]*dT*dT*kG*k[5mC]*kG; antisense) [compound 1074837] | 11 % UTC
39 | 1076021 (k[5mC]*kA*kT*dT*dA*dA*dT*dA*dA*dA*dG*dT*dT*kA*k[5mC]*k[5mC]; antisense) [compound 1076021] | 95 % UTC
40 | 1076405 (antisense kT*kT*kA*dT*dT*dT*dA*dA*dG*dA*d[5mC]*d[5mC]*dT*kG*kG*kT) [compound 1076405] | 12 % UTC

Reference: patent US11214803B2, “Modulators of YAP1 expression” (Ionis Pharmaceuticals, Inc., priority 2019, dated 2022)
